Source: publication PMC7946667 (Cancer Chemotherapy and Pharmacology, 2021)
“Also recorded” adds a separate entry of the source. Read-outs that look alike come from different tables or passages of the source.

How the values were obtained:
CYP2C9 [1] = details: for AUC0-inf, adjusted geometric mean / Cmax, adjusted geometric mean: linear mixed effects model; for AUC0–144 h / Cmax: patient plasma, geometric mean (CV%); for classification as CYP2C9 inhibitor: based on S-warfarin AUC increase, ceritinib 750 mg QD
CYP3A [2] = test: Clinical DDI study: pharmacokinetics of midazolam (CYP3A probe substrate) and 1′-hydroxymidazolam with and without ceritinib; format: in vivo, human; details: based on midazolam AUC increase, ceritinib 750 mg QD
Description: This was a multicenter, open-label, single sequence, crossover phase I study (ClinicalTrials.gov identifier: NCT02422589) and was divided into two phases, DDI phase and post-DDI treatment phase (Fig. 1). Patients were recruited from 10 clinical centers located across 4 countries, namely Spain (n = 3), United States (n = 3), Italy (n = 3), and Denmark (n = 1).
To assess the pharmacokinetics of probe substrates, blood samples were obtained on Days 1 and 28 at pre-dose and at 0.25, 0.5, 1, 2, 3, 4, 6, 8, 10, 24, 48, 72, 96, 120, and 144 h post-dose. […] A blood sample for CYP2C9 genotyping was collected on Day 1 of the DDI phase from all participating patients. Patients were categorized as CYP2C9 poor, intermediate, or extensive metabolizers based on the genotype testing results. This assessment was of exploratory nature and was not used as inclusion/exclusion criteria in the study.
A linear mixed-effects model was fitted to the log-transformed primary PK parameters (Cmax, AUC0-144 h, and AUC0-inf) and included a fixed effect for treatment and a random effect for subject.

[3] = Safety and tolerability (adverse events) of ceritinib 750 mg QD in patients
Method: (§1) Adverse events (AEs) were coded using the Medical Dictionary for Regulatory Activities version 20.1 and were graded using Common Terminology Criteria for Adverse Events version 4.03. All patients were followed up for AEs and serious AEs (SAEs) for at least 30 days following the last dose of study treatment at the end of treatment phase. Tumor evaluation was performed at screening visit within 28 days prior to study treatment (Day 1 of DDI phase) using contrast enhanced computed tomography (or magnetic resonance imaging). Assessments of tumor response were performed every two cycles (i.e., every 6 weeks) through Cycle 9. ORR and DOR by investigator assessment was reported per Response Evaluation Criteria in Solid Tumors (RECIST) 1.1.

[4] = system: advanced ALK-positive tumors; test: Antitumor activity (best overall response, ORR, DCR per RECIST 1.1, investigator assessment); format: in vivo, human
Method: as §1

CYP3A4/5 = details: cited from earlier work
CYP2C9 [5] = details: cited from earlier work
CYP1A2 = details: cited from earlier work
CYP2D6 = details: cited from earlier work
CYP2B6 = details: cited from earlier work
CYP2C8 = details: cited from earlier work
CYP2C19 = details: cited from earlier work
CYP2A6 = details: HLM, of more minor clinical relevance; cited from earlier work
CYP3A [6] = details: in vitro HLM studies; cited from earlier work
[7] = cited from earlier work
[8] = treatment warfarin + ceritinib 750 mg QD for 3 weeks
[9] = warfarin 10 mg single oral dose + ceritinib 750 mg QD at steady state (Day 28)
[10] = warfarin 10 mg single oral dose alone (Day 1)
[11] = All Patients N=33, ceritinib 750 mg QD
[12] = NSCLC N=19, ceritinib 750 mg QD
[13] = Other tumors N=14, ceritinib 750 mg QD
[14] = HLM, read-out: IC50, reversible inhibition
[15] = HLM, read-out: Ki, reversible inhibition
[16] = ceritinib concentrations up to 50 µM
[17] = HLM, of more minor clinical relevance

Structure (SMILES): CC(=O)C[C@H](c1ccccc1)c1c(O)c2ccccc2oc1=O [R-warfarin]
- AUC0-inf, adjusted geometric mean (CYP2C9 [1]; [8]): 38900 ng·h/mL
- Cmax, adjusted geometric mean (CYP2C9 [1]; [8]): 616 ng/mL
- AUC0-inf, adjusted geometric mean (CYP2C9 [1]; treatment warfarin alone): 36300 ng·h/mL
- Cmax, adjusted geometric mean (CYP2C9 [1]; treatment warfarin alone): 560 ng/mL
- AUC0–144 h (CYP2C9 [1]; [9]): 38,500 (34.9) h*ng/mL
- Cmax (CYP2C9 [1]; [9]): 616 (23.6) ng/mL
- AUC0–144 h (CYP2C9 [1]; [10]): 30,600 (39.0) h*ng/mL
- Cmax (CYP2C9 [1]; [10]): 560 (34.2) ng/mL
- impact of ceritinib on R-warfarin pharmacokinetics (CYP2C9 [1]; warfarin + ceritinib vs warfarin alone): did not affect the pharmacokinetics of R-warfarin to a clinically significant extent; also recorded: negligible

Structure (SMILES): CC(=O)C[C@@H](c1ccccc1)c1c(O)c2ccccc2oc1=O [S-warfarin]
- reduction of S-warfarin CL/F (CYP2C9 [1]; co-administered with ceritinib vs warfarin alone): approximately 30%
- AUC0-inf, adjusted geometric mean (CYP2C9 [1]; [8]): 32800 ng·h/mL
- Cmax, adjusted geometric mean (CYP2C9 [1]; [8]): 598 ng/mL
- AUC0-inf, adjusted geometric mean (CYP2C9 [1]; treatment warfarin alone): 21200 ng·h/mL
- Cmax, adjusted geometric mean (CYP2C9 [1]; treatment warfarin alone): 569 ng/mL
- AUC0–144 h (CYP2C9 [1]; [9]): 28,400 (36.0) h*ng/mL
- Cmax (CYP2C9 [1]; [9]): 599 (27.5) ng/mL
- AUC0–144 h (CYP2C9 [1]; [10]): 18,200 (46.6) h*ng/mL
- Cmax (CYP2C9 [1]; [10]): 569 (34.9) ng/mL

Structure (SMILES): Cc1cc(Nc2ncc(Cl)c(Nc3ccccc3S(=O)(=O)C(C)C)n2)c(OC(C)C)cc1C1CCNCC1 [ceritinib]
- classification as CYP3A inhibitor (CYP3A [2]): strong inhibitor of CYP3A
- classification as CYP3A inhibitor (CYP3A [2]; listed as Ceritinib): strong CYP3A inhibitor
- deaths suspected to be treatment related ([3]; all patients N=33): None
- patients who died during the study ([3]; all patients N=33, cause study disease): 8 patients
- deaths during the on-treatment period ([3]; within 30 days of last dose of ceritinib): 4 deaths
- ORR ([4]; 19 patients with NSCLC, 95% CI: 20.3, 66.5): 42.1%
- DCR ([4]; 19 patients with NSCLC, 95% CI: 38.4, 83.7): 63.2%
- Best overall response Unknown [4, 11]: 6 (18.2) n (%)
- Complete response (CR) [4, 11]: 1 (3.0) n (%)
- Non-CR/Non-PD [4, 11]: 2 (6.1) n (%)
- Partial response (PR) [4, 11]: 8 (24.2) n (%)
- Progressive disease (PD) [4, 11]: 12 (36.4) n (%)
- Best overall response Unknown [4, 12]: 4 (21.1) n (%)
- Complete response (CR) [4, 12]: 1 (5.3) n (%)
- Non-CR/Non-PD [4, 12]: 2 (10.5) n (%)
- Partial response (PR) [4, 12]: 7 (36.8) n (%)
- Progressive disease (PD) [4, 12]: 3 (15.8) n (%)
- Best overall response Unknown [4, 13]: 2 (14.3) n (%)
- Complete response (CR) [4, 13]: 0 n (%)
- Non-CR/Non-PD [4, 13]: 0 n (%)
- Partial response (PR) [4, 13]: 1 (7.1) n (%)
- Progressive disease (PD) [4, 13]: 9 (64.3) n (%)
- ORR ([4]; overall, all 33 patients, 95% CI: 13.3, 45.5): 27.3%
- DCR ([4]; overall, all 33 patients, 95% CI: 28.1, 63.6): 45.5%
- classification as CYP2C9 inhibitor (CYP2C9 [1]): weak inhibitor of CYP2C9
- classification as CYP2C9 inhibitor (CYP2C9 [1]; listed as Ceritinib): weak CYP2C9 inhibitor
- IC50 (CYP3A4/5; [14]): 200 nM
- Ki (CYP3A4/5; [15]): 160 nM
- mode of inhibition of metabolism of midazolam (CYP3A substrate) (CYP3A4/5; pooled HLMs): competitively inhibited
- inhibitor concentration associated with 50% maximal inactivation rate [Ki] (CYP3A4/5; time-dependent inhibition of CYP3A, HLM): 1470 nM
- IC50 (CYP2C9 [5]; [14]): 2000 nM
- Ki (CYP2C9 [5]; [15]): 240 nM
- time-dependent inhibition (CYP2C9 [5]; [16]): no apparent time-dependent inhibition
- mode of inhibition of metabolism of diclofenac (CYP2C9 substrate) (CYP2C9 [5]; pooled HLMs): competitively inhibited
- time-dependent inhibition (CYP1A2; [16]): no apparent time-dependent inhibition
- inhibition at clinically relevant concentrations (CYP1A2): unlikely to inhibit
- reversible inhibition (CYP2D6; [17]): reversibly inhibits
- time-dependent inhibition (CYP2D6; [16]): no apparent time-dependent inhibition
- inhibition at clinically relevant concentrations (CYP2D6): unlikely to inhibit
- reversible inhibition (CYP2B6; [17]): reversibly inhibits
- inhibition at clinically relevant concentrations (CYP2B6): unlikely to inhibit
- inhibition at clinically relevant concentrations (CYP2C8): unlikely to inhibit
- inhibition at clinically relevant concentrations (CYP2C19): unlikely to inhibit
- reversible inhibition (CYP2A6): reversibly inhibits
- share of hepatic oxidative metabolism via CYP3A (CYP3A [6]): > 90%
- Cmax at steady-state ([7]; observed in earlier clinical trials): 1010 ng/mL
- Cmax ([7]; observed in earlier clinical trials, read-out: Cmax at steady-state): 1800 nM
- time to steady-state ([7]; repeat daily dosing): 2–3 weeks
